Patent publication US20120040941A1, “5-(2--1-HYDROXYETHYL)-8-HYDROXYQUINOLIN-2(1H)-ONE AND ITS USE IN THE TREATMENT OF PULMONARY DISEASES” (priority 2009, published 2012)

Experiments:
Type in all cases: in vivo, human
[1] = Clinical Phase II study: pharmacokinetics, plasma level after inhalation; settings: subjects receiving the dose of 5 micrograms by inhalation
Source text: (§1) Clinical Phase II study: A randomised double-blind, double-dummy, placebo and active comparator-controlled, cross-over trial assesses the activity, safety, tolerability and pharmacokinetics of single doses of 5-(2-{[6-(2,2-difluoro-2-phenylethoxy)hexyl]amino}-1-(R)-hydroxyethyl)-8-hydroxyquinolin-2(1H)-one heminapadisylate by inhalation in asthma patients.
(§2) Methods: Men with a diagnosis of mild to moderate persistent asthma, as defined by the 2006 GINA guideline, for at least 6 months prior to screening and with a FEV 1 61-85% of the predicted normal values (according to Quanjer et al. 1993) were randomised to treatment sequences comprising a single-dose administration of 5-(2-{[6-(2,2-difluoro-2-phenylethoxy)hexyl]amino}-1-(R)-hydroxyethyl)-8-hydroxyquinolin-2(1H)-one heminapadisylate (at metered nominal doses of 5, 10 and 25 micrograms in the Cyclohaler® device), two administrations (at time points 0 and 12 hours) of Salmeterol (at a metered nominal dose of 50 micrograms in the Cyclohaler® device) and placebo administered all of them by means of a dry powder inhaler. Lung function measurements included (by spirometry) FEV1, PEF, FVC, FEF25-75, and (by body plethysmography) sGaw and Raw.

asthma patients [2] = assay: Clinical Phase II study: safety and tolerability, adrenergic adverse events
Source text: as §1, §2

asthma patients [3] = assay: Clinical Phase II study: lung function (spirometry, body plethysmography) after single inhaled doses
Source text: as §1, §2

[4] = single dose 5 micrograms, patients with asthma

Structure (SMILES): O=c1ccc2c([C@@H](O)CNCCCCCCOCC(F)(F)c3ccccc3)ccc(O)c2[nH]1 [5-(2-{[6-(2,2-difluoro-2-phenylethoxy)hexyl]amino}-1-(R)-hydroxyethyl)-8-hydroxyquinolin-2(1H)-one]
- plasma level [1]: < 2.5 pg/mL
- adverse events commonly seen after adrenergic stimulation (tremor, tachycardia, restlessness) (asthma patients [2]; doses 5, 10 and 25 micrograms, single inhalation): occurred only with the two higher (10 and 25 micrograms) doses
- systemic adrenergic effects (asthma patients [2]; [4]): without producing systemic adrenergic effects
- differences in dose effect between the different doses (asthma patients [3]; 5, 10 and 25 micrograms): no evidence of differences in dose effect
- bronchodilatory action, time after dosing (asthma patients [3]; all doses (5, 10 and 25 micrograms), single inhalation): up to 36 hours
- bronchodilation (asthma patients [3]; [4]): supramaximal long-lasting bronchodilation
- increase in average trough FEV1 compared to salmeterol (asthma patients [3]; single dose vs salmeterol 50 micrograms at 0 and 12 hours): statistically significant
- average peak and trough FEV1 compared with placebo and with salmeterol (asthma patients [3]; single inhaled doses 5, 10 and 25 micrograms (all doses tested), salmeterol 2 x 50 micrograms, mild to moderate persistent asthma): clearly increased
